# pIC50: −log10 of the molar value. Counter-ions that a name gives are not always drawn.
# Columns and labels:
# [1] = test system: P-388 lymphocytic leukemia; settings: cited from earlier work
# P388 = settings: cited from earlier work
# [2] = test system: lymphocytic leukemia P388; assay: P388 in vivo lymphocytic leukemia test; set-up: species or system male or female CD2 F1 mice; settings: for P388 in vivo T/C × 100: two single doses, four-day interval; for Number of animals surviving 30 days and considered "cured": six to seven animals per group
# Procedure: The in vivo lymphocytic leukemia P388 test is carried out by the United States National Cancer Institute. The animals used are either male or female CD2 F1 mice. There are six to seven animals per test group. The tumor transplant is by intraperitoneal injection of dilute ascitic fluid containing cells of lymphocytic leukemia P388. The test compounds are administered intraperitoneally in two single doses with a four-day interval between doses at various dose levels following tumor inoculation. The animals are weighed and survivors are recorded on a regular basis for 30 days. A ratio of survival time for treated (T)/control (C) animals is calculated. The criterion for efficacy is T/C×100>125%. The positive control compound in this test is 1,4-dihydroxy-5,8-[bis[[2-[(2-hydroxyethyl)amino]-ethyl]]amino]-9,10-anthracenedione given at dosages ranging from 12.0 to 0.075 mg/kg. See Cancer Chemotherapy Reports, Part 3, 3, 1 (1972) for a comprehensive discussion of the protocol.
# E. coli = assay: Inhibitory zone diameter, agar disc assay, E. coli; assay type: cell-based, Escherichia coli
# Procedure: (§1) 1. Preparation of inocula
# (§2) The bacterial and yeast isolates are maintained in agar slants or in liquid media, hereby designated as inoculum media. The cultures are transferred at regular intervals in such media. (See Table for the corresponding inoculum media of each culture.) The organisms are generally transferred on to agar slants or liquid inoculum media and incubated overnight (18-20 hours): 37° C. for the bacterial isolates and 28° C. for the fungal cultures.
# (§3) The microbial cells from the overnight agar slants are then scraped off and suspended in saline solution (0.85% NaCl). The microbial concentrations are adjusted to a light transmittancy of 20-35%, Junior Coleman Spectrophotometer (555M). For the organisms that are maintained in liquid media, an aliquot of the culture suspension is simply diluted with saline to 20-35% light transmittancy.
# (§4) The above microbial suspension serve as inocula for the assay plates. Thus, 0.16-10 ml (see Table for exact amount) are used to inoculate 100 ml of the molten-agar assay medium.
# (§5) Stainless steel frames, 12.3×25.3 cm (ID) and glass plates, 15.3×31.7 cm are used to make the test trays. The frames are attached to the plates with tape at each end and the inner edges sealed with 2% agar. Twenty five ml of inoculated assay medium is spread evenly on each tray and allowed to solidify. The trays are covered, inverted, and refrigerated until used.
# (§6) The compounds or samples to be tested are dissolved in suitable solvents, e.g., alcohols, dimethylsulfoxide, or N,N-dimethylformamide. The samples are generally dissolved so that the final concentration of the solvent is <10%.* The compounds are tested at different concentrations: 3,000; 1,000; 500; 100; and 10 mcg/ml. Paper discs (12.7 mm diameter) are placed on the agar trays with forceps, then 0.08 ml of the dissolved compound is pipetted onto each disc using a 0.2 ml pipette.
# (§7) The disked agar trays are incubated overnight (18-20 hours) at 37° C. for the bacterial cultures and 28° C. for the yeasts. […] The diameter of the zone is measured in mm. […]
# B. Subtilis = assay: Inhibitory zone diameter, agar disc assay, B. subtilis; assay type: cell-based; settings: Bacillus subtilis; for zone of inhibition at 100 µg/mL: Conc. 100 (mg/ml)
# Procedure: as §1, §2, §3, §4, §5, §6, §7
# S. Faeculic = assay: Inhibitory zone diameter, agar disc assay, S. faecalis; assay type: cell-based, Streptococcus faecalis; settings: Enterococcus faecalis
# Procedure: as §1, §2, §3, §4, §5, §6, §7
# A. Viscolacti = assay: Inhibitory zone diameter, agar disc assay, A. viscolacti; assay type: cell-based; settings: read-out: Inhibitory Zone Diameter, A. viscolacti
# Procedure: as §1, §2, §3, §4, §5, §6, §7
# N. Catarrhali = assay: Inhibitory zone diameter, agar disc assay, N. catarrhali; assay type: cell-based; settings: Conc. 100 (mg/ml)
# Procedure: as §1, §2, §3, §4, §5, §6, §7
# L1210 cells = assay: L1210 in vitro (murine leukemia cell growth); assay type: cell-based; settings: Mus musculus, L1210, 72 h; 3 days, 37° C., 5% CO2; read-out: L1210 in vitro ID50
# Procedure: A test protocol uses L1210 cells, a murine leukemia cell line, grown in RPMI 1640 supplemented with 5% fetal bovine serum and gentamicin (50 μg/ml). Drug dilutions are prepared in the appropriate solvent and 20 μl of each dilution are added to 24-well Linbro tissue culture plates, followed by the addition of 2.0 ml of cell suspension containing 3×10^4 cells per ml. Solvent and medium controls are included in each test. After incubation at 37° C. for three days in 5% CO2, the contents of each well are removed and the cells counted in a ZBI Coulter counter. Percent growth are calculated relative to the controls and the levels of drug activity are expressed as ID50 in moles per liter.
# [3] = test system: HCT-8 (human colon adenocarcinoma) cells; assay: HCT-8 in vitro (human colon adenocarcinoma); assay type: cell-based; settings: 60-65 hrs at 37° C., read-out: HCT-8 in vitro ID50
# Procedure: In addition to their usefulness as antibiotic and antifungal agents and as antileukemic agents, certain of the compounds of the invention display in vitro activity against solid tumors when tested by the following procedure.
# HCT-8 (human colon adenocarcinoma) cells are trypsinized using Trypsin-EDTA. A single cell suspension is achieved by passing the cells through a 26 gauge needle with a 20 cc syringe. A cell suspension is prepared using RPMI 1640 growth medium (available from Gibco Laboratories)+10% fetal calf serum+50 μg/ml garamycin with a cell concentration of approximately 30,000 cells/ml. The cell suspension is dispensed in Linbro 24-well plates; 1 ml/well. The plates are incubated for approximately 48 hrs at 37° C. in a 5% CO2 atmosphere. At this time test compounds are added in the appropriate concentration. Five μl of the 200 μg/ml stock solution is added to each well in a primary test. Ten μl of the appropriate dilution is added to each well for a titration test. The plates are reincubated an additional 60-65 hrs at 37° C. in a 5% CO2 atmosphere. The test is read by lysing the cells using a mix of cationic surfactant, glacial acetic acid and sodium chloride. Two ml of the lysed cell suspension from each well is added to 8 ml of diluent. Each sample is read with a Coulter counter (ZBI model). The activity of each sample is measured as a percentage of the controls and the data is reported as ID50, that is the molar quantity of drug required to kill 50% of the tumor cells.
# tumor = settings: cited from earlier work
# [4] = 12.5 mg/kg i.p. (printed 125 for Example 1)
compound,measurement,setting,value
Cc1ccc(NCCNCCO)c2c(=O)c3ccccc3sc12,activity against the P-388 lymphocytic leukemia,[1],inactive
Cc1ccc(NCCN(C)C)c2c(=O)c3ccccc3sc12,activity against the P-388 lymphocytic leukemia,[1],inactive
CCN(CC)CCNc1ccc(C)c2sc3ccc(O)cc3c(=O)c12 [7-hydroxy analog of lucanthone],in vivo P388 activity,P388,shown to have in vivo P388 activity
"CN(C)CCNc1ccc(NCCNCCO)c2sc3ccccc3c(=O)c12.Cl.Cl.Cl [Example 1, 1-[[2-(Dimethylamino)ethyl]amino]-4-[[2-[(2-hydroxyethyl)amino]ethyl]amino]-9H-thioxanthen-9-one trihydrochloride]",P388 in vivo T/C × 100,[2]; [4],190%
same,P388 in vivo T/C × 100,[2]; 25 mg/kg i.p.,236%
same,"Number of animals surviving 30 days and considered ""cured""",[2]; 25 mg/kg i.p.,1
same,zone of inhibition at 3 g/mL,"E. coli; Escherichia coli, read-out: Inhibitory Zone Diameter, E. coli",17 mm
same,zone of inhibition at 100 µg/mL,B. Subtilis,19 mm
same,zone of inhibition at 1600 µg/mL,S. Faeculic; Conc. 1600 (mg/ml),19 mm
same,zone of inhibition at 100000 µg/mL,A. Viscolacti,17 mm
same,zone of inhibition at 100 µg/mL,N. Catarrhali,21 mm
CCN(CC)CCNc1ccc(N)c2sc3ccccc3c(=O)c12 [Example 1c],activity against the P-388 lymphocytic leukemia,[1],inactive
"CN(C)CCNc1ccc(NCCN)c2sc3ccccc3c(=O)c12 [Example 2, 4-[(2-Aminoethyl)amino]-1-[[2-(dimethylamino)ethyl]amino]-9H-thioxanthen-9-one, hydrochloride]",P388 in vivo T/C × 100,[2]; [4],187%
same,P388 in vivo T/C × 100,[2]; 25 mg/kg i.p.,212%
same,"Number of animals surviving 30 days and considered ""cured""",[2]; 25 mg/kg i.p.,1
same,zone of inhibition at 1000 µg/mL,"E. coli; Escherichia coli, Conc. 1000 (mg/ml)",14 mm
same,zone of inhibition at 100 µg/mL,B. Subtilis,16 mm
same,zone of inhibition at 500 µg/mL,S. Faeculic; Conc. 500 (mg/ml),14 mm
same,zone of inhibition at 100000 µg/mL,A. Viscolacti,23 mm
same,zone of inhibition at 100 µg/mL,N. Catarrhali,20 mm
"CN(C)CCNc1ccc(NCCCN)c2sc3ccccc3c(=O)c12.Cl.Cl.Cl [Example 3, 4-[(3-Aminopropyl)amino]-1-[[2-(dimethylamino)ethyl]amino]-9H-thioxanthen-9-one, trihydrochloride]",P388 in vivo T/C × 100,[2]; 25 mg/kg i.p.,125%
same,"Inhibitory Zone Diameter, E. coli",E. coli; concentration not given,0 mm
same,zone of inhibition at 1000 µg/mL,B. Subtilis; Conc. 1000 (mg/ml),16 mm
same,zone of inhibition at 3000 µg/mL,S. Faeculic; Conc. 3000 (mg/ml),18 mm
same,zone of inhibition at 100000 µg/mL,A. Viscolacti,14 mm
same,zone of inhibition at 100 µg/mL,N. Catarrhali,24 mm
"CN(C)CCNc1ccc([N+](=O)[O-])c2sc3ccccc3c(=O)c12 [Example 4, 1-[[2-(dimethylamino)ethyl]amino]-4-nitro-9H-thioxanthen-9-one]",pIC50,L1210 cells,6.92
same,pIC50,[3],6.57
CCN(CC)CCNc1ccc([N+](=O)[O-])c2sc3cc(OC)ccc3c(=O)c12 [Example 5 NH(CH2)2 NEt2 6-OMe],pIC50,L1210 cells,5.92
same,pIC50,[3],5.96
same,P388 in vivo T/C × 100,[2]; 100 mg/kg i.p.,104%
"CN(C)CCNc1ccc([N+](=O)[O-])c2sc3ccc(O)cc3c(=O)c12 [Example 5 NH(CH2)2 NMe2 7-OH, 1-[[2-(Dimethylamino)ethyl]amino]-7-hydroxy-4-nitro-9H-thioxanthen-9-one]",pIC50,L1210 cells,8.19
"COc1ccc2sc3c([N+](=O)[O-])ccc(NCCN(C)C)c3c(=O)c2c1 [Example 5 NH(CH2)2 NMe2 7-OMe, 1-[[2-(Dimethylamino)ethyl]amino]-7-methoxy-4-nitro-9H-thioxanthen-9-one]",pIC50,L1210 cells,6.60
same,pIC50,[3],6.00
same,P388 in vivo T/C × 100,[2]; 100 mg/kg i.p.,178%
"CN(C)CCCNc1ccc([N+](=O)[O-])c2sc3ccccc3c(=O)c12 [Example 5 NH(CH2)3 NMe2 H, 1-[[3-(dimethylamino)propyl]amino]-4-nitro-9H-thioxanthen-9-one]",pIC50,L1210 cells,7.02
same,pIC50,[3],6.34
same,P388 in vivo T/C × 100,[2]; 50 mg/kg i.p.,190%
CCN(CC)CCNc1ccc(CO)c2sc3ccccc3c(=O)c12 [hycanthone],Experimental antitumor activity,tumor,Experimental antitumor activity has been reported
CCN(CC)CCNc1ccc(C)c2sc3ccccc3c(=O)c12 [lucanthone],Experimental antitumor activity,tumor,Experimental antitumor activity has been reported
